We go through 40 compounds from patent publication US6627628B1, “Substituted 4-amino-2-aryl-cyclopenta[d]pyrimidines, their production and use and pharmaceutical preparations containing same” (Aventis Pharma Deutschland, GmbH, priority 1998, dated 2003).

`Cl.Cl.Clc1ccc(-c2nc3c(c(N(Cc4ccccc4)C4CCNCC4)n2)CCC3)cc1` registered a melting point of 275 °C. The same measure for `COc1cccc(CCNc2nc(-c3cccc(Cl)c3)nc3c2CCC3)c1.Cl`: 192 °C; for `COc1cccc(CCNc2nc(-c3ccc(Cl)cc3)nc3c2CCC3)c1.Cl`: 230 °C. The compound `COCCNc1nc(-c2ccc(Cl)cc2)nc2c1CCC2.Cl` registered a melting point of 208 °C. The same measure for `OCCNc1nc(-c2ccc(Cl)cc2)nc2c1CCC2` [Example 18, 2-(4-Chlorophenyl)-4-(2-hydroxyethylamino)-6,7-dihydro-5H-cyclopenta[d]-pyrimidine]: 160 °C; for `Clc1ccc(-c2nc3c(c(NCc4cccnc4)n2)CCC3)cc1` [Example 19, 2-(4-Chlorophenyl)-4-((3-pyridylmethyl)amino)-6,7-dihydro-5H-cyclopenta[d]-pyrimidine]: 209 °C.

`Clc1cccc(-c2nc3c(c(N4CCOCC4)n2)CCC3)c1` [Example 20, 2-(3-Chlorophenyl)-4-morpholino-6,7-dihydro-5H-cyclopenta[d]pyrimidine] gave a melting point of 132 °C. The same measure for `OCCNc1nc(-c2cccc(Cl)c2)nc2c1CCC2` [Example 21, 2-(3-Chlorophenyl)-4-(2-hydroxyethylamino)-6,7-dihydro-5H-cyclopenta[d]-pyrimidine]: 150 °C; for `Clc1cccc(-c2nc3c(c(NCc4cccnc4)n2)CCC3)c1` [Example 22, 2-(3-Chlorophenyl)-4-((3-pyridylmethyl)amino)-6,7-dihydro-5H-cyclopenta[d]-pyrimidine]: 185 °C. In the case of `Clc1ccc(-c2nc3c(c(N4CCSCC4)n2)CCC3)cc1` [Example 24, 2-(4-Chlorophenyl)-4-thiomorpholino-6,7-dihydro-5H-cyclopenta[d]pyrimidine] it was 159 °C; in that of `CC(C)CNc1nc(-c2ccc(Cl)cc2)nc2c1CCC2` [Example 29, 2-(4-Chlorophenyl)-4-isobutylamino-6,7-dihydro-5H-cyclopenta[d]pyrimidine], 121 °C; in that of `CC1(C)CC(Nc2nc(-c3cccc(Cl)c3)nc3c2CCC3)CC(C)(C)N1` [Example 31, 2-(3-Chlorophenyl)-4-(2,2,6,6-tetramethylpiperidin-4-ylamino)-6,7-dihydro-5H-cyclopenta[d]pyrimidine], 182 °C. In the case of `Clc1cccc(-c2nc3c(c(N4CCCC4)n2)CCC3)c1` [Example 36, 2-(3-Chlorophenyl)-4-pyrrolidino-6,7-dihydro-5H-cyclopenta[d]pyrimidine], the melting point stood at 150 °C. The same measure for `Clc1cccc(-c2nc3c(c(N4CCSCC4)n2)CCC3)c1` [Example 38, 2-(3-Chlorophenyl)-4-thiomorpholino-6,7-dihydro-5H-cyclopenta[d]pyrimidine]: 134 °C; for `Cc1ccc(-c2nc3c(c(NCCO)n2)CCC3)cc1` [Example 39, 2-(4-Methylphenyl)-4-(2-hydroxyethylamino)-6,7-dihydro-5H-cyclopenta[d]-pyrimidine]: 191 °C.

Regarding `Cc1ccc(-c2nc3c(c(N4CCCC4)n2)CCC3)cc1` [Example 46, 2-(4-Methylphenyl)-4-pyrrolidino-6,7-dihydro-5H-cyclopenta[d]pyrimidine], the melting point came to 203 °C.

Turning to `Cc1ccc(-c2nc3c(c(N4CCSCC4)n2)CCC3)cc1` [Example 47, 2-(4-Methylphenyl)-4-thiomorpholino-6,7-dihydro-5H-cyclopenta[d]pyrimidine], the melting point stood at 160 °C.

As to `CCCN(CCC)c1nc(-c2cc(Cl)cc(Cl)c2)nc2c1CCC2` [Example 52, 2-(3,5-Dichlorophenyl)-4-dipropylamino-6,7-dihydro-5H-cyclopenta[d]pyrimidine], the melting point was found to be 120 °C. For `Clc1cc(Cl)cc(-c2nc3c(c(N4CCCCC4)n2)CCC3)c1` [Example 53, 2-(3,5-Dichlorophenyl)-4-piperidino-6,7-dihydro-5H-cyclopenta[d]pyrimidine], the melting point amounted to 147 °C.

`COc1ccc(-c2nc3c(c(NCCCO)n2)CCC3)cc1` [Example 54, 2-(4-Methoxyphenyl)-4-(3-hydroxypropylamino)-6,7-dihydro-5H-cyclopenta[d]-pyrimidine]: the melting point was found to be 165 °C. Consider `CCCCNc1nc(-c2ccc(OC)cc2)nc2c1CCC2` [Example 55, 2-(4-Methoxyphenyl)-4-butylamino-6,7-dihydro-5H-cyclopenta[d]pyrimidine], for which the melting point amounted to 119 °C.

On to `COc1ccc(-c2nc3c(c(NC4CCCC4)n2)CCC3)cc1` [Example 56, 2-(4-Methoxyphenyl)-4-cyclopentylamino-6,7-dihydro-5H-cyclopenta[d]-pyrimidine], for which the melting point stood at 154 °C.

`COc1ccc(-c2nc3c(c(NC4CCCCC4)n2)CCC3)cc1` [Example 57, 2-(4-Methoxyphenyl)-4-cyclohexylamino-6,7-dihydro-5H-cyclopenta[d]-pyrimidine] returned a melting point of 138 °C. On to `COc1ccc(-c2nc3c(c(NCCc4ccccc4Cl)n2)CCC3)cc1` [Example 58, 2-(4-Methoxyphenyl)-4-(2-(2-chlorophenyl)ethylamino)-6,7-dihydro-5H-cyclopenta[d]pyrimidine], for which the melting point was found to be 145 °C. `CCCN(CCC)c1nc(-c2ccc(OC)cc2)nc2c1CCC2` [Example 59, 2-(4-Methoxyphenyl)-4-dipropylamino-6,7-dihydro-5H-cyclopenta[d]pyrimidine] registered a melting point of 74 °C. In the case of `COc1ccc(-c2nc3c(c(N4CCCCCC4)n2)CCC3)cc1` [Example 60, 2-(4-Methoxyphenyl)-4-hexamethyleneimino-6,7-dihydro-5H-cyclopenta[d]-pyrimidine] it was 99 °C; in that of `COc1ccc(-c2nc3c(c(N4CCOCC4)n2)CCC3)cc1` [Example 61, 2-(4-Methoxyphenyl)-4-morpholino-6,7-dihydro-5H-cyclopenta[d]pyrimidine], 192 °C. In the case of `COCCCNc1nc(-c2ccc(OC)c(OC)c2)nc2c1CCC2` [Example 62, 2-(3,4-Dimethoxyphenyl)-4-(3-methoxypropylamino)-6,7-dihydro-5H-cyclopenta-[d]pyrimidine] it was 107 °C; in that of `COc1ccc(-c2nc3c(c(NC4CCCC4)n2)CCC3)cc1OC` [Example 63, 2-(3,4-Dimethoxyphenyl)-4-cyclopentylamino-6,7-dihydro-5H-cyclopenta[d]-pyrimidine], 138 °C. In the case of `COc1ccc(-c2nc3c(c(NC4CCCCC4)n2)CCC3)cc1OC` [Example 64, 2-(3,4-Dimethoxyphenyl)-4-cyclohexylamino-6,7-dihydro-5H-cyclopenta[d]-pyrimidine] it was 70 °C.

`CCCCNc1nc(-c2ccc(OC)c(OC)c2)nc2c1CCC2` [Example 65, 2-(3,4-Dimethoxyphenyl)-4-butylamino-6,7-dihydro-5H-cyclopenta[d]pyrimidine] displayed a melting point of 115 °C.

`CCCN(CCC)c1nc(-c2ccc(OC)c(OC)c2)nc2c1CCC2` [Example 66, 2-(3,4-Dimethoxyphenyl)-4-dipropylamino-6,7-dihydro-5H-cyclopenta[d]-pyrimidine] displayed a melting point of 107 °C. In the case of `COc1ccc(-c2nc3c(c(N4CC(C)OC(C)C4)n2)CCC3)cc1OC` (stereo not shown) [Example 67, 2-(3,4-Dimethoxyphenyl)-4-(2,6-dimethylmorpholino)-6,7-dihydro-5H-cyclopenta[d]pyrimidine] it was 142 °C; in that of `COc1ccc(-c2nc3c(c(N(CCO)CCO)n2)CCC3)cc1OC` [Example 68, 2-(3,4-Dimethoxyphenyl)-4-(di-(2-hydroxyethyl)amino)-6,7-dihydro-5H-cyclopenta[d]pyrimidine], 115 °C; in that of `COCCCNc1nc(-c2ccc(C#N)cc2)nc2c1CCC2` [Example 69, 2-(4-Cyanophenyl)-4-(3-methoxypropylamino)-6,7-dihydro-5H-cyclopenta[d]-pyrimidine], 130 °C. The same measure for `N#Cc1ccc(-c2nc3c(c(NCc4ccccc4)n2)CCC3)cc1` [Example 70, 2-(4-Cyanophenyl)-4-benzylamino-6,7-dihydro-5H-cyclopenta[d]pyrimidine]: 168 °C. As to `CCN(CC)c1nc(-c2ccc(C#N)cc2)nc2c1CCC2` [Example 71, 2-(4-Cyanophenyl)-4-diethylamino-6,7-dihydro-5H-cyclopenta[d]pyrimidine], the melting point stood at 130 °C. The same measure for `N#Cc1ccc(-c2nc3c(c(N4CCCCC4)n2)CCC3)cc1` [Example 72, 2-(4-Cyanophenyl)-4-piperidino-6,7-dihydro-5H-cyclopenta[d]pyrimidine]: 152 °C; for `N#Cc1ccc(-c2nc3c(c(N4CCOCC4)n2)CCC3)cc1` [Example 73, 2-(4-Cyanophenyl)-4-morpholino-6,7-dihydro-5H-cyclopenta[d]pyrimidine]: 247 °C; for `N#Cc1ccc(-c2nc3c(c(NCc4cccnc4)n2)CCC3)cc1` [Example 74, 2-(4-Cyanophenyl)-4-((3-pyridylmethyl)amino)-6,7-dihydro-5H-cyclopenta[d]-pyrimidine]: 219 °C.
